Target: histamine H1 receptor (H1R) (Homo sapiens, UniProt P35367)
Test: [3H]-thymidine incorporation in CHO-H1R cells
Assay type: cell-based

histamine H1 receptor (H1R), sequence (P35367 whole entry): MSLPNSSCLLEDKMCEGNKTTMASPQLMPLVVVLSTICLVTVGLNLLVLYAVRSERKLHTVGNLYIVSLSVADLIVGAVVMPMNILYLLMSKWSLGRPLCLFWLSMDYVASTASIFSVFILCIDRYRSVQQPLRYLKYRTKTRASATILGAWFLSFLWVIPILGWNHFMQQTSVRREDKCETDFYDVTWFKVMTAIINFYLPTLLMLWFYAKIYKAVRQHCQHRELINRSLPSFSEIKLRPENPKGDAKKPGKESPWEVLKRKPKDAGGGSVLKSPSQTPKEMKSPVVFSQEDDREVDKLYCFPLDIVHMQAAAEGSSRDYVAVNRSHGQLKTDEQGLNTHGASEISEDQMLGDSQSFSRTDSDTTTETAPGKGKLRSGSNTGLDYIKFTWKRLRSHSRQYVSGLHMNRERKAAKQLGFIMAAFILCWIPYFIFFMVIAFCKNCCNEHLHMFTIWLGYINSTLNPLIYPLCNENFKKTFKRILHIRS

EC50: 23.1 ± 3.6 µM
Compound: NCCc1cnc(-c2cccc(C(F)(F)F)c2)[nH]1 [H1, 2,3-trifluormetilfenilhistamine]

Reference: article PMC12985397 (Experimental cell research, 2009)
